Tested on: LG0567-F671-PDC KRAS tumor spheroid viability
Experiment: Anticancer human tumor LG0567-F671-PDC patient-derived lung adenocarcinoma cell line growth inhibition [KRAS2]
Conditions: spheroids with HUVEC and MSC; for IC50: curve of first compound; for viability, T/C: stronger effect = lower value
Method in brief: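 Combination screen of spheroid viability in tumor-cell co-cultures with endothelial (HUVEC) and mesenchymal stem cell stroma. Each agent was tested in half-log dilutions, topping at clinical Cmax or at 10 microM without a known Cmax.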

[1] = second compound 0.1 µM, first compound 0.00316 µM
[2] = second compound 0.1 µM, first compound 0.01 µM
[3] = second compound 0.1 µM, first compound 0.0316 µM
[4] = second compound 0.1 µM, first compound 0.1 µM
[5] = second compound 0.1 µM, first compound 0.316 µM
[6] = second compound 0.1 µM, first compound 1 µM
[7] = second compound 0.316 µM, first compound 0.00316 µM
[8] = second compound 0.316 µM, first compound 0.01 µM
[9] = second compound 0.316 µM, first compound 0.0316 µM
[10] = second compound 0.316 µM, first compound 0.1 µM
[11] = second compound 0.316 µM, first compound 0.316 µM
[12] = second compound 0.316 µM, first compound 1 µM
[13] = second compound 1 µM, first compound 0.00316 µM
[14] = second compound 1 µM, first compound 0.01 µM
[15] = second compound 1 µM, first compound 0.0316 µM
[16] = second compound 1 µM, first compound 0.1 µM
[17] = second compound 1 µM, first compound 0.316 µM
[18] = second compound 1 µM, first compound 1 µM
[19] = second compound 3.16 µM, first compound 0.00316 µM
[20] = second compound 3.16 µM, first compound 0.01 µM
[21] = second compound 3.16 µM, first compound 0.0316 µM
[22] = second compound 3.16 µM, first compound 0.1 µM
[23] = second compound 3.16 µM, first compound 0.316 µM
[24] = second compound 3.16 µM, first compound 1 µM
[25] = second compound 10 µM, first compound 0.00316 µM
[26] = second compound 10 µM, first compound 0.01 µM
[27] = second compound 10 µM, first compound 0.0316 µM
[28] = second compound 10 µM, first compound 0.1 µM
[29] = second compound 10 µM, first compound 0.316 µM
[30] = second compound 10 µM, first compound 1 µM
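Note: drug exposure lasted seven days after spheroids formed for three days.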
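Throughout, for viability, T/C: 100% = DMSO vehicle control viability.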

Structure (SMILES) | IC50 (second compound 0.1 µM) [nM] | IC50 (second compound 0.316 µM) [nM] | IC50 (second compound 1 µM) [nM] | IC50 (second compound 3.16 µM) [nM] | IC50 (second compound 10 µM) [nM] | viability, T/C [1] [%] | viability, T/C [2] [%] | viability, T/C [3] [%] | viability, T/C [4] [%] | viability, T/C [5] [%] | viability, T/C [6] [%] | viability, T/C [7] [%] | viability, T/C [9] [%] | viability, T/C [10] [%] | viability, T/C [15] [%] | viability, T/C [16] [%] | viability, T/C [21] [%] | viability, T/C [22] [%] | viability, T/C [27] [%] | viability, T/C [28] [%] | further results
CCN1CCN(Cc2ccc(Nc3ncc(F)c(-c4cc(F)c5nc(C)n(C(C)C)c5c4)n3)nc2)CC1 + COc1cc2nc(C)nc(NC(C)c3cc(N)cc(C(F)(F)F)c3)c2cc1OC1CCOC1 | 913 | 47.3 | 7.74 | < 3.16 | 5.32 | 70.5 | 64.7 | 54.3 | 56.7 | 54.8 | 47.3 | 69 | 51.5 | 47.5 | 45.7 | 38.7 | 34.7 | 33.6 | 26.5 | 9.45 | viability, T/C [8]: 64.2%; viability, T/C [11]: 44.2%; viability, T/C [12]: 45.3%; viability, T/C [13]: 57.3%; viability, T/C [14]: 47.3%; viability, T/C [17]: 32.2%; viability, T/C [18]: 42.4%; viability, T/C [19]: 44.4%; viability, T/C [20]: 39.5%; viability, T/C [23]: 29.4%; viability, T/C [24]: 30.8%; viability, T/C [25]: 60.8%; viability, T/C [26]: 34.8%; viability, T/C [29]: 0.94%; viability, T/C [30]: 0.43%
Cn1ncnc1[C@H]1c2n[nH]c(=O)c3cc(F)cc(c23)N[C@@H]1c1ccc(F)cc1 + COc1cc2nc(C)nc(NC(C)c3cc(N)cc(C(F)(F)F)c3)c2cc1OC1CCOC1 | > 100 | > 100 | > 100 | > 100 | > 100 | 74.8 | 83.8 | 84.7 | 82.8 |  |  | 61.1 | 81.4 | 75.9 | 53.7 | 53.8 | 53.6 | 51.9 | 51.7 | 53.6 | viability, T/C (second compound 0.1 µM, first compound 0.000316 µM): 94.8%; viability, T/C (second compound 0.1 µM, first compound 0.001 µM): 78.3%; viability, T/C (second compound 0.316 µM, first compound 0.000316 µM): 77.6%; viability, T/C (second compound 0.316 µM, first compound 0.001 µM): 74.9%; viability, T/C [8]: 66.3%; viability, T/C (second compound 1 µM, first compound 0.000316 µM): 75.6%; viability, T/C (second compound 1 µM, first compound 0.001 µM): 63.6%; viability, T/C [13]: 58.6%; viability, T/C [14]: 49.1%; viability, T/C (second compound 3.16 µM, first compound 0.000316 µM): 69.1%; viability, T/C (second compound 3.16 µM, first compound 0.001 µM): 70%; viability, T/C [19]: 67.3%; viability, T/C [20]: 56.9%; viability, T/C (second compound 10 µM, first compound 0.000316 µM): 61.3%; viability, T/C (second compound 10 µM, first compound 0.001 µM): 62.9%; viability, T/C [25]: 71.2%; viability, T/C [26]: 54.4%
CC1OCC2(CCN(c3cnc(Sc4ccnc(N)c4Cl)c(N)n3)CC2)C1N (stereo not given) + CNCc1ccccc1-c1csc(C(C)Nc2nc(C)nc3cc(OC)c(OC)cc23)c1 | 68.1 | 53.3 | 75 | 221 | < 31.6 |  |  | 60.4 | 44.5 | 33.3 | 28.6 |  | 57.1 | 41.6 | 61.5 | 43.4 | 79.2 | 65.7 | 0.2 | 0.17 | viability, T/C (second compound 0.1 µM, first compound 3.16 µM): 23.6%; viability, T/C (second compound 0.1 µM, first compound 10 µM): 17.7%; viability, T/C [11]: 30%; viability, T/C [12]: 23.3%; viability, T/C (second compound 0.316 µM, first compound 3.16 µM): 22.1%; viability, T/C (second compound 0.316 µM, first compound 10 µM): 14.6%; viability, T/C [17]: 38.4%; viability, T/C [18]: 24.8%; viability, T/C (second compound 1 µM, first compound 3.16 µM): 18.1%; viability, T/C (second compound 1 µM, first compound 10 µM): 13.5%; viability, T/C [23]: 43.8%; viability, T/C [24]: 13.4%; viability, T/C (second compound 3.16 µM, first compound 3.16 µM): 3.22%; viability, T/C (second compound 3.16 µM, first compound 10 µM): 3.6%; viability, T/C [29]: 0.16%; viability, T/C [30]: 0.14%; viability, T/C (second compound 10 µM, first compound 3.16 µM): 0.13%; viability, T/C (second compound 10 µM, first compound 10 µM): 0.2%
